Consider one compound from US20150224190A1, “Combination of a phosphoinositide 3-kinase inhibitor and an inhibitor of the IL-8/CXCR interaction” (priority 2012, published 2015).

In experiment [1] the test system is JAK2/STAT5. As to the kind of experiment: JAK2/STAT5 activation in human primary triple-negative breast tumors grown in immunodeficient mice. The class given is in vivo. The following applies: 30 mg/kg BEZ235 for 4 days vs vehicle. The protocol: FIG. 4. BEZ235 treatment activates JAK2/STAT5 and IL-8 secretion in human primary triple-negative breast tumors Immunoblots of lysates from primary triple-negative breast tumors grown in immunodeficient mice and treated for 4 days with 30 mg/kg BEZ235 or vehicle (VHC). pJAK2 levels were measured in triplicate by ELISA and normalized to total JAK2 levels (Y-axis).
(§1) Cells for Western Blotting and ELISA were lysed with RIPA buffer. […]
(§2) For assessing pJAK2 levels, an ELISA assay (Tyr1007/1008, Invitrogen) was applied because of cross-reactivity of all pJAK2 antibodies tested. Interleukin-8 levels in RIPA lysates, cell culture supernatants and mouse tail vein blood plasma were measured by ELISA, as well (Biolegend). […]

In experiment [2] the test system is pAKT. As to the kind of experiment: Target inhibition after single doses: pAKT levels in breast cancer lines. The class given is cell-based, human. The following applies: up to 20 hours after treatment, MDA 468, MDA 231 LM2 and mouse 4T-1 breast cancer lines. The procedure: (§3) MDA231, lung metastatic subline MDA231 LM2 (Minn et al., 2005) and SUM159 human breast cancer cells, as well as the Balb/c tumor-derived mammary cancer lines 4T-1 and 168FARN (Aslakson and Miller, 1992), were propagated as previously described. All other cell lines were obtained from and were cultured according to the protocols of ATCC. For treatment with inhibitors, cells were synchronized without serum overnight and then supplemented with culture medium containing the inhibitor(s). For experiments with doxycycline-inducible shRNAs, 500 ng/ml of doxycycline (Sigma) was added to the medium and experiments performed 48 h later. Cell viability assays, cell cycle and cell death measurements were performed at 0.5% FCS in order to avoid masking effects of growth factors present under full-serum conditions.
as §1
(§4) The present inventors applied single doses of COMPOUND A, a dual PI3K and mTOR inhibitor, and analyzed target inhibition and potential signaling pathway crosstalks after 2, 4, 8 and 20 h hours of treatment. […] While RAD001 readily activated JAK2 starting at 4 hours of treatment, they observed a later response with BKM120 treatment starting at 8 hours after adding the compound. […]

For experiment [3], the system named is JAK2/STAT5. Nature of the experiment: JAK2/STAT5 phosphorylation in breast cancer cell lines (pJAK2 ELISA, pSTAT5 immunoblot). The note with it: in vitro, after 4 hours-8 hours of treatment. Type of experiment: cell-based, human. The protocol: as §3
Cells for Western Blotting and ELISA were lysed with RIPA buffer. Xenograft lysates were prepared by lysing kryo-homogenized tumor powder in RIPA buffer (50 mM Tris-HCl pH 8, 150 mM NaCl, 1% NP-40, 0.5% sodium deoxycholate, 0.1% SDS. RIPA was supplemented with 1× protease inhibitor cocktail (Complete Mini, Roche), 0.2 mmol/L sodium-vanadate, 20 mM sodium fluoride and 1 mmol/L phenylmethylsulfonyl fluoride. For IRS-1 immunoprecipitation, cell lysates containing 500-1000 μg of protein were incubated with 1 μg of antibody and 20-50 μl of protein A-Sepharose beads (Zymed Laboratories, Inc., South San Francisco, Calif.) overnight at 4° C. Immunoprecipitates or whole cell lysates (30-80 μg) were subjected to SDS-PAGE, transferred to PVDF membranes (Immobilon-P, Millipore) and blocked for 1 hr at room temperature with 5% milk in PBS-0.1% Tween 20. Membranes were then incubated overnight with antibodies as indicated and exposed to secondary HRP-coupled anti-mouse or -rabbit antibody at 1:5-10,000 for 1 h at room temperature. Proteins were visualized using an ECL kit (Amersham) or an enhanced chemiluminescence detection system (Pierce Biotechnology). In each of the studies presented, the results shown are typical of at least three independent experiments. The following antibodies were used: anti-JAK2 (Cell Signaling), anti-JAK1 (Cell Signaling), anti-pSTAT5 (Tyr694, Cell Signaling), anti-STAT5 (STAT5A&B, Cell Signaling), anti-STAT3 (Cell Signaling), anti-pSTAT3 (Tyr705, Cell Signaling), anti-AKT pan (Cell Signaling), anti-pAKT (Thr308 and Ser473, Cell Signaling), anti-ERK2 (Santa Cruz), anti-S6 (Cell Signaling), anti-pS6 (Ser235/236, Cell Signaling), anti-PARP (Cell Signaling), anti-MCL1 (Cell Signaling), anti-BIM (EL, L and S isoforms, Cell Signaling), anti-pIGF1R/plnsR (Invitrogen), anti-IGF1Rbeta (Cell Signaling), anti-InsRbeta (Santa Cruz), anti-IRS1 (Upstate), anti-plRS1 (Tyr612, Calbiochem).
as §2, §4
For orientation: An ELISA detects its analyte on a solid surface through an enzyme-linked reagent.

Turning to `Cn1c(=O)n(-c2ccc(C(C)(C)C#N)cc2)c2c3cc(-c4cnc5ccccc5c4)ccc3ncc21` [COMPOUND A, 2-methyl-2-[4-(3-methyl-2-oxo-8-quinolin-3-yl-2,3-dihydro-imidazo[4,5-c]quinolin-1-yl)-phenyl]-propionitrile], the “JAK2/STAT5 activation (pJAK2 normalized to total JAK2, immunoblots)” value in experiment [1] is “activates”. Further, in experiment [2], the pAKT levels result is listed as “reduced”. Also, in experiment [3], the pJAK2 result is “considerable upregulation” and the pSTAT5 result is “considerable upregulation”.
